# pIC50: −log10 of the molar value. “And” between values parts separate entries of the source, which are not always exact repeats. Identical values can stand only once. Like-named read-outs stand apart in the source and are kept apart here.
# How the values were obtained:
# OVCAR-5 ovarian cancer = experiment: Cytotoxicity, OVCAR-5; type: cell-based; conditions: Homo sapiens, read-out: Log10 GI50, OVCAR-5 (converted)
# Text: (§1) A total of 55 cell lines from the leukemia, non-small cell lung cancer, small cell lung cancer, colon cancer, CNS cancer, melanoma, ovarian cancer, and renal cancer panels were examined.
# OVCAR-3 ovarian cancer = experiment: Cytotoxicity, OVCAR-3; conditions: read-out: cytotoxicity GI50, OVCAR-3, 50% growth inhibition, average of two determinations, 8640 min, Hydrochloride
# SK-MEL-2 melanoma = experiment: Cytotoxicity, SK-MEL-2; type: cell-based; conditions: Homo sapiens, read-out: Log10 GI50, SK-MEL-2 (converted)
# Text: as §1
# CCRF-CBM leukemia = experiment: Cytotoxicity, CCRF-CBM; type: cell-based; conditions: read-out: Log10 GI50, CCRF-CBM (converted)
# Text: as §1
# SF-295 CNS cancer = experiment: Cytotoxicity, SF-295
# UO-31 renal cancer = experiment: Cytotoxicity, UO-31; type: cell-based; conditions: Homo sapiens, read-out: Log10 GI50, UO-31 (converted)
# Text: as §1
# SNB-19 CNS cancer = experiment: Cytotoxicity, SNB-19; type: cell-based; conditions: Homo sapiens, read-out: Log10 GI50, SNB-19 (converted)
# Text: as §1
# Water solubility = type: physicochemical
# SNB-78 CNS cancer = experiment: Cytotoxicity, SNB-78; type: cell-based; conditions: Homo sapiens, read-out: Log10 GI50, SNB-78 (converted)
# Text: as §1
# [1] = test system: A549/ATCC non-small cell lung cancer; experiment: Cytotoxicity, A549/ATCC; type: cell-based; conditions: Homo sapiens, read-out: Log10 GI50, A549/ATCC (converted)
# Text: as §1
# [2] = test system: DMS 273 small cell lung cancer; experiment: Cytotoxicity, DMS 273; conditions: Hydrochloride
# UACC-257 melanoma = experiment: Cytotoxicity, UACC-257; type: cell-based; conditions: Homo sapiens, read-out: Log10 GI50, UACC-257 (converted)
# Text: as §1
# HT29 colon cancer = experiment: Cytotoxicity, HT29 (Table XI panel); type: cell-based; conditions: Homo sapiens, HT-29; read-out: Log10 GI50, HT29 (converted)
# Text: as §1
# ACHN renal cancer = experiment: Cytotoxicity, ACHN; type: cell-based
# Text: as §1
# DLD-1 colon cancer = experiment: Cytotoxicity, DLD-1; type: cell-based; conditions: Homo sapiens, read-out: Log10 GI50, DLD-1 (converted)
# Text: as §1
# M14 melanoma = experiment: Cytotoxicity, M14; conditions: read-out: cytotoxicity GI50, M14, 50% growth inhibition, average of two determinations, 8640 min, Hydrochloride
# CAKI-1 renal cancer = experiment: Cytotoxicity, CAKI-1; conditions: read-out: cytotoxicity GI50, CAKI-1, 50% growth inhibition, average of two determinations, 8640 min, Hydrochloride
# SK-MEL-5 melanoma = experiment: Cytotoxicity, SK-MEL-5 (Table XI panel); type: cell-based; conditions: Homo sapiens, read-out: Log10 GI50, SK-MEL-5 (converted)
# Text: as §1
# HL-60 (TB) leukemia = experiment: Cytotoxicity, HL-60(TB) leukemia; conditions: read-out: cytotoxicity GI50, HL-60(TB); 50% growth inhibition; average of two determinations; 8640 min; Hydrochloride, 8640 min
# 786-0 renal cancer = experiment: Cytotoxicity, 786-0; type: cell-based; conditions: Homo sapiens, read-out: Log10 GI50, 786-0 (converted)
# Text: as §1
# tubulin = experiment: Inhibition of tubulin polymerization (turbidimetry); type: biochemical, bovine; conditions: Hydrochloride
# RPMI-8226 leukemia = experiment: Cytotoxicity, RPMI-8226; type: cell-based; conditions: Homo sapiens, read-out: Log10 GI50, RPMI-8226 (converted)
# Text: as §1
# RXF-393 renal cancer = experiment: Cytotoxicity, RXF-393; type: cell-based; conditions: Homo sapiens, read-out: Log10 GI50, RXF-393 (converted)
# Text: as §1
smiles,measurement,setting,value
"COc1cc(CNc2ccc(C)cc2)cc(OC)c1OC.Cl [110a, 4-Methyl-N-(3,4,5-trimethoxybenzyl)aniline Hydrochloride]",GI50,OVCAR-5 ovarian cancer,1350 nM
same,GI50,OVCAR-3 ovarian cancer,214 nM
same,GI50,SK-MEL-2 melanoma,132 nM
same,GI50,CCRF-CBM leukemia,282 nM
same,"Log10 GI50, SF-295",SF-295 CNS cancer,-6.49
same,GI50,"SF-295 CNS cancer; read-out: cytotoxicity GI50, SF-295, 50% growth inhibition, average of two determinations, 8640 min, Hydrochloride, 8640 min",233 nM
same,GI50,UO-31 renal cancer,832 nM
same,GI50,SNB-19 CNS cancer,295 nM
same,water solubility (in words),Water solubility,water soluble
same,GI50,SNB-78 CNS cancer,1100 nM
same,GI50,[1],513 nM
same,"Log10 GI50, DMS 273",[2],< -7.00 and -7.03
same,GI50,"[2]; read-out: cytotoxicity GI50, DMS 273, 50% growth inhibition, average of two determinations, 8640 min, 8640 min",104 nM
same,GI50,UACC-257 melanoma,> 100000 nM
same,GI50,HT29 colon cancer,347 nM
same,GI50,"ACHN renal cancer; Homo sapiens, ACHN, read-out: Log10 GI50, ACHN (converted)",< 100 nM
same,"Log10 GI50, ACHN",ACHN renal cancer; Hydrochloride,-7.01
same,GI50,DLD-1 colon cancer,575 nM
same,GI50,M14 melanoma,292 nM
same,GI50,CAKI-1 renal cancer,162 nM
same,GI50,SK-MEL-5 melanoma,912 nM
same,GI50,HL-60 (TB) leukemia,72.2 nM
same,GI50,786-0 renal cancer,324 nM
same,pIC50,"tubulin; Table X, different glutamate preparation (1M monosodium glutamate and GTP), read-out: inhibn of tubulin polymn IC50 (±SD)",5.46
same,pIC50,"tubulin; benzylanilines, Table X series, read-out: tubulin polymerization IC50",5.46
same,GI50,RPMI-8226 leukemia,437 nM
same,GI50,RXF-393 renal cancer,112 nM

# Reference: US5430062A, “Stilbene derivatives as anticancer agents” (priority 1993, dated 1995)
